Measured values from PMC5937091, “Efficacy of Alpha Glucosidase Inhibitor from Marine Actinobacterium in the Control of Postprandial Hyperglycaemia in Streptozotocin (STZ) Induced Diabetic Male Albino Wister Rats” (Iranian Journal of Pharmaceutical Research : IJPR, 2018).
Converted amounts (≈) assume the structure as drawn.

Target: T1, mammalian α-glucosidase (rat α-glucosidase; rat-intestinal acetone powder)
T1 construct: gene Si; crude soluble supernatant of sonicated rat-intestinal acetone powder (Sigma-Aldrich); native, not purified
Assay: colorimetric inhibition assay, absorbance at […] nm
Format: biochemical
Settings: substrate p-nitrophenyl α-D-glucopyranoside, phosphate buffer pH 6.8, 37 °C (as in screening protocol); mode printed both as competitive and as non-competitive

In the case of `CN1C(=O)C(CCl)N(C(=O)OC(C)(C)C)C1C(C)(C)C` (stereo not shown) [2-t-butyl-5-chloromethyl-3-methyl-4-oxoimidazolidine-1-carboxylic acid, t-butyl ester], the IC50 is reported as 32.08 µg/mL (≈ 105 µM).
